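GI50 marks 50% less growth. At the TGI there is no net growth.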
Legend:
Experiment in all cases: inhibition of tumour cell growth, NCI panel, 384-well format
MALME-3M melanoma = tested on: MALME-3M melanoma
A549 NSCLC = tested on: A549 NSCLC
COLO 205 colon = tested on: COLO 205 colon
HCT-15 colon = tested on: HCT-15 colon
SK-MEL-28 melanoma = tested on: SK-MEL-28 melanoma
CAKI-1 renal = tested on: CAKI-1 renal
EKVX NSCLC = tested on: EKVX NSCLC
NCI-H23 lung = tested on: NCI-H23 lung
MOLT-4 leukemia = tested on: MOLT-4 leukemia
SR leukemia = tested on: SR leukemia
KM12 colon = tested on: KM12 colon
RXF 393 renal = tested on: RXF 393 renal
SF-268 CNS = tested on: SF-268 CNS
HS 578T breast = tested on: HS 578T breast
A498 renal = tested on: A498 renal
ACHN renal = tested on: ACHN renal
U251 glioblastoma = tested on: U251 glioblastoma
SN12C renal = tested on: SN12C renal
DU-145 prostate = tested on: DU-145 prostate
OVCAR-8 ovarian = tested on: OVCAR-8 ovarian
SNB-75 CNS = tested on: SNB-75 CNS
SNB-19 CNS = tested on: SNB-19 CNS
M14 melanoma = tested on: M14 melanoma
UACC-62 melanoma = tested on: UACC-62 melanoma
HT29 colon = tested on: HT29 colon
NCI-H226 lung = tested on: NCI-H226 lung
MCF7 breast = tested on: MCF7 breast
NCI-H522 lung = tested on: NCI-H522 lung
MDA-MB-231 breast = tested on: MDA-MB-231 breast
NCI-H460 NSCLC = tested on: NCI-H460 NSCLC
OVCAR-3 ovarian = tested on: OVCAR-3 ovarian
UACC-257 melanoma = tested on: UACC-257 melanoma
SK-OV-3 ovarian = tested on: SK-OV-3 ovarian
SK-MEL-5 melanoma = tested on: SK-MEL-5 melanoma
RPMI-8226 leukemia = tested on: RPMI-8226 leukemia
BT-549 breast = tested on: BT-549 breast
HOP-92 NSCLC = tested on: HOP-92 NSCLC
MDA-MB-468 breast = tested on: MDA-MB-468 breast
PC-3 prostate = tested on: PC-3 prostate
NCI-H322M lung = tested on: NCI-H322M lung
LOX IMVI melanoma = tested on: LOX IMVI melanoma
HCC-2998 colon = tested on: HCC-2998 colon
HCT-116 colon = tested on: HCT-116 colon
HL-60(TB) leukemia = tested on: HL-60(TB) leukemia

For CCn1c(-c2nonc2N)nc2c(C#CC(C)(C)O)ncc(OC[C@H]3CCCNC3)c21, the GI50 (MALME-3M melanoma) was 183 nM, the TGI (MALME-3M melanoma) was 17600 nM and the GI50 (A549 NSCLC) was 4150 nM. It also gave a TGI (A549 NSCLC) of 22700 nM, a GI50 (COLO 205 colon) of 116 nM and a TGI (COLO 205 colon) of 12100 nM. It also gave a GI50 (HCT-15 colon) of 984 nM, a TGI (HCT-15 colon) of 64200 nM and a GI50 (SK-MEL-28 melanoma) of 4690 nM. It also gave a TGI (SK-MEL-28 melanoma) of 20400 nM, a GI50 (CAKI-1 renal) of 411 nM and a TGI (CAKI-1 renal) of 16700 nM. For the same molecule, the GI50 (EKVX NSCLC) was 4790 nM, the TGI (EKVX NSCLC) was 26500 nM and the GI50 (NCI-H23 lung) was < 10 nM. The TGI (NCI-H23 lung) was 13600 nM, the GI50 (MOLT-4 leukemia) was < 10 nM and the TGI (MOLT-4 leukemia) was < 10 nM. The GI50 (SR leukemia) was < 10 nM, the TGI (SR leukemia) was < 10 nM and the GI50 (KM12 colon) was 18 nM. For the same molecule, the TGI (KM12 colon) was 14400 nM, the GI50 (RXF 393 renal) was < 10 nM and the TGI (RXF 393 renal) was 19200 nM. For the same molecule, the GI50 (SF-268 CNS) was 6190 nM, the TGI (SF-268 CNS) was 20200 nM and the GI50 (HS 578T breast) was < 10 nM. The TGI (HS 578T breast) was 14200 nM, the GI50 (A498 renal) was < 10 nM and the TGI (A498 renal) was < 10 nM. The GI50 (ACHN renal) was < 10 nM, the TGI (ACHN renal) was 129 nM and the GI50 (U251 glioblastoma) was 1080 nM. It also gave a TGI (U251 glioblastoma) of 14400 nM, a GI50 (SN12C renal) of 90.8 nM and a TGI (SN12C renal) of 12400 nM. For the same molecule, the GI50 (DU-145 prostate) was 93.8 nM, the TGI (DU-145 prostate) was 13800 nM and the GI50 (OVCAR-8 ovarian) was < 10 nM. It also gave a TGI (OVCAR-8 ovarian) of 17600 nM, a GI50 (SNB-75 CNS) of 216 nM and a TGI (SNB-75 CNS) of 17100 nM. For the same molecule, the GI50 (SNB-19 CNS) was 495 nM, the TGI (SNB-19 CNS) was 15200 nM and the GI50 (M14 melanoma) was < 10 nM. For the same molecule, the TGI (M14 melanoma) was < 10 nM, the GI50 (UACC-62 melanoma) was 220 nM and the TGI (UACC-62 melanoma) was 16800 nM. It also gave a GI50 (HT29 colon) of 199 nM, a TGI (HT29 colon) of 16500 nM and a GI50 (NCI-H226 lung) of 4620 nM. The TGI (NCI-H226 lung) was 18500 nM, the GI50 (MCF7 breast) was 26.7 nM and the TGI (MCF7 breast) was 16600 nM. It also gave a GI50 (NCI-H522 lung) of 1250 nM, a TGI (NCI-H522 lung) of 4730 nM and a GI50 (MDA-MB-231 breast) of 2620 nM. The TGI (MDA-MB-231 breast) was 16700 nM, the GI50 (NCI-H460 NSCLC) was 195 nM and the TGI (NCI-H460 NSCLC) was 11000 nM. The GI50 (OVCAR-3 ovarian) was 198 nM, the TGI (OVCAR-3 ovarian) was 15200 nM and the GI50 (UACC-257 melanoma) was 2000 nM. It also gave a TGI (UACC-257 melanoma) of 16700 nM, a GI50 (SK-OV-3 ovarian) of 42.2 nM and a TGI (SK-OV-3 ovarian) of 12700 nM. The GI50 (SK-MEL-5 melanoma) was < 10 nM, the TGI (SK-MEL-5 melanoma) was 190 nM and the GI50 (RPMI-8226 leukemia) was < 10 nM. The TGI (RPMI-8226 leukemia) was 283 nM, the GI50 (BT-549 breast) was < 10 nM and the TGI (BT-549 breast) was 2130 nM. The GI50 (HOP-92 NSCLC) was < 10 nM, the TGI (HOP-92 NSCLC) was 21700 nM and the GI50 (MDA-MB-468 breast) was 99 nM. The TGI (MDA-MB-468 breast) was 19600 nM, the GI50 (PC-3 prostate) was 84.6 nM and the TGI (PC-3 prostate) was 14200 nM. The GI50 (NCI-H322M lung) was 26.8 nM, the TGI (NCI-H322M lung) was 18400 nM and the GI50 (LOX IMVI melanoma) was 1050 nM. The TGI (LOX IMVI melanoma) was 8420 nM, the GI50 (HCC-2998 colon) was < 10 nM and the TGI (HCC-2998 colon) was 20.9 nM. For the same molecule, the GI50 (HCT-116 colon) was 1470 nM, the TGI (HCT-116 colon) was 17700 nM and the GI50 (HL-60(TB) leukemia) was < 10 nM. For the same molecule, the TGI (HL-60(TB) leukemia) was 101 nM.

— PubChem BioAssay (NCI)
